Data taken from ChEMBL document CHEMBL1201862, “PubChem BioAssay data set” (2004).
Activity calls are given as the source filed them.

Assays:
Assay type in all cases: functional
[1] = target: cAMP-dependent protein kinase catalytic subunit alpha (Homo sapiens, UniProt P17612)
[2] = target: Fibroblast growth factor receptor 1 (Homo sapiens, UniProt P11362)
[3] = target: Serine/threonine-protein kinase PAK 4 (Homo sapiens, UniProt O96013);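 also: value obtained within a kinome profiling panel in which PAK4 was one of the panel members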
Sequence of Serine/threonine-protein kinase PAK 4 (O96013 whole entry): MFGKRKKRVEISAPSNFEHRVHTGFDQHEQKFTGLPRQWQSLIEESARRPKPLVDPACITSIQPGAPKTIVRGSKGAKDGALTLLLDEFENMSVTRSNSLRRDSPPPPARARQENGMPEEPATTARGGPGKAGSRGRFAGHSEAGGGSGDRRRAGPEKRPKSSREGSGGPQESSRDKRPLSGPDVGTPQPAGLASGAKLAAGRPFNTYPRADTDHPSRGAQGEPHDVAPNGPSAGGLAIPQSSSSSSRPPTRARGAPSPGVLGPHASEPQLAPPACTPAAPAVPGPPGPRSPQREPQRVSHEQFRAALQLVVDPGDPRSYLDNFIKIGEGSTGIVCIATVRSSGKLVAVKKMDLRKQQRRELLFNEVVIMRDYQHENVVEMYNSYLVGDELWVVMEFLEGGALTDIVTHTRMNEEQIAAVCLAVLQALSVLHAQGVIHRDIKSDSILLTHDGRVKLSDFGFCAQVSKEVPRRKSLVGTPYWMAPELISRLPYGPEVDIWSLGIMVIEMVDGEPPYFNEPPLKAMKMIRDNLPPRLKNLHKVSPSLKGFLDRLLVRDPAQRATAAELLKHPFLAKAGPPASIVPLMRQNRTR

[4] = target: Dual specificity protein kinase CLK4 (Homo sapiens, UniProt Q9HAZ1)
Sequence of Dual specificity protein kinase CLK4 (Q9HAZ1 whole entry): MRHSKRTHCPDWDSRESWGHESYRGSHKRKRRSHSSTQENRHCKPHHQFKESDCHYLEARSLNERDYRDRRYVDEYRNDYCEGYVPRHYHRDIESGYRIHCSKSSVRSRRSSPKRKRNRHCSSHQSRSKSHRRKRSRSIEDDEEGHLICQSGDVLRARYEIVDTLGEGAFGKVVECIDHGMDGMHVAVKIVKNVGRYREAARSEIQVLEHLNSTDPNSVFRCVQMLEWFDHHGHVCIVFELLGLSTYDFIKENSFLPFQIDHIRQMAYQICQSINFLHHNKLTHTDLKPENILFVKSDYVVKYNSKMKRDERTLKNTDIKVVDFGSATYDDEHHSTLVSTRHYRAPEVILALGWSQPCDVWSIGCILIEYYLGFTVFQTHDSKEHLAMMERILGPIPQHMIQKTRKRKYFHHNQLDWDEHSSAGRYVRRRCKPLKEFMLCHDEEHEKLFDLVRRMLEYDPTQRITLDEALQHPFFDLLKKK

Focal adhesion kinase 1 = Focal adhesion kinase 1 (Homo sapiens, UniProt Q05397);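 also: measured as one member of a kinome panel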
[5] = target: Hepatocyte growth factor receptor (Homo sapiens, UniProt P08581);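 also: kinase panel profiling across the kinome, with MET as the panel member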
Activated CDC42 kinase 1 = Activated CDC42 kinase 1 (Homo sapiens, UniProt Q07912); experiment: Navigating the Kinome. Panel member name: ACK1
[6] = target: Proto-oncogene tyrosine-protein kinase receptor Ret (Homo sapiens, UniProt P07949);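 also: measured within a kinome-wide profiling panel, RET as the panel member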
[7] = target: Mitogen-activated protein kinase kinase kinase kinase 4 (Homo sapiens, UniProt O95819)
Aurora kinase A = Aurora kinase A (Homo sapiens, UniProt O14965);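 also: value from the Navigating the Kinome kinase panel profiling, panel entry STK6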
[8] = target: Tyrosine-protein kinase Fyn (Homo sapiens, UniProt P06241)
[9] = target: ALK tyrosine kinase receptor (Homo sapiens, UniProt Q9UM73);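 also: ALK tested as one member of a kinase panel screen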
Sequence of ALK tyrosine kinase receptor (Q9UM73 whole entry): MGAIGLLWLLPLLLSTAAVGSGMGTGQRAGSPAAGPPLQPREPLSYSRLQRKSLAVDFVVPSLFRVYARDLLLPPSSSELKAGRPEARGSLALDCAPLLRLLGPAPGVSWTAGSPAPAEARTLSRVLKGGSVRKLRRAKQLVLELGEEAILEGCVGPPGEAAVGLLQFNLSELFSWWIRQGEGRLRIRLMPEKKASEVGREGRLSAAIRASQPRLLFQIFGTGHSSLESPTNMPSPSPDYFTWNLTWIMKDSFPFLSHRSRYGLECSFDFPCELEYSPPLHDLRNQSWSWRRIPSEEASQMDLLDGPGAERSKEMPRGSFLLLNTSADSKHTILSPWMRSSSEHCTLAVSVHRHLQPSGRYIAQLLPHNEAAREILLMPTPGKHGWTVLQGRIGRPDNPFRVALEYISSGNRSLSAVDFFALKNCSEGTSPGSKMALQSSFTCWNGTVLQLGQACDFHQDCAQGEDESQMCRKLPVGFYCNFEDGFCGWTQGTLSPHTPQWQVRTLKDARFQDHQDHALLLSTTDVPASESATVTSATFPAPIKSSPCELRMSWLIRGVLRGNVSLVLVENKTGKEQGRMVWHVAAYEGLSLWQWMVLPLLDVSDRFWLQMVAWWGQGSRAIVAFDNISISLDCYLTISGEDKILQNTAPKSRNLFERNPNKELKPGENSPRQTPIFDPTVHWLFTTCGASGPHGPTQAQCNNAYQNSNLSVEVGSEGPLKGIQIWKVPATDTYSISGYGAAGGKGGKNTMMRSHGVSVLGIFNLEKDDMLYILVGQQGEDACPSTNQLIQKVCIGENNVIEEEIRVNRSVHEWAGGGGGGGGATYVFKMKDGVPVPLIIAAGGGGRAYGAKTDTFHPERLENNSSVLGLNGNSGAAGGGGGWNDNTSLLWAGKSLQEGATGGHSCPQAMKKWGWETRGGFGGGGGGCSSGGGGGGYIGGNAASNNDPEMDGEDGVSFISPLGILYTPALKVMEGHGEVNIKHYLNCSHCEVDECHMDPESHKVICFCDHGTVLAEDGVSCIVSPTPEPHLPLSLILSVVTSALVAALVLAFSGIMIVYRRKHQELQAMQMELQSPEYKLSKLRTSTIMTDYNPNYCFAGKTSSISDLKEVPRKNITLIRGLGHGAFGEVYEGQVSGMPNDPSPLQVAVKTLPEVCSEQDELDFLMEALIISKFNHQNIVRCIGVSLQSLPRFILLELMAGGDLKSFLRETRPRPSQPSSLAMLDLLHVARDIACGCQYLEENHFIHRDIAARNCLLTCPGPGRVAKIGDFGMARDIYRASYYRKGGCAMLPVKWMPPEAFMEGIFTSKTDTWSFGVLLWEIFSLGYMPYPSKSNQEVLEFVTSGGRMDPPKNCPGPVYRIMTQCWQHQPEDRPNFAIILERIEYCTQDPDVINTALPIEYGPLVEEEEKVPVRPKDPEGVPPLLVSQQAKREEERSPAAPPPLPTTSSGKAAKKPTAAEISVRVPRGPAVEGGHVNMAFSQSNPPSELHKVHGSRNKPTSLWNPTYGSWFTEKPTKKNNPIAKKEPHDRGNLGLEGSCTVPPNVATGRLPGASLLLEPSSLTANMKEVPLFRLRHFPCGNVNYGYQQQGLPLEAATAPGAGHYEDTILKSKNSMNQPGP

[10] = target: Cyclin-dependent kinase 5 (Homo sapiens, UniProt Q00535);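 also: CDK5 measured as one member of a kinase profiling panel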
Sequence of Cyclin-dependent kinase 5 (Q00535 whole entry): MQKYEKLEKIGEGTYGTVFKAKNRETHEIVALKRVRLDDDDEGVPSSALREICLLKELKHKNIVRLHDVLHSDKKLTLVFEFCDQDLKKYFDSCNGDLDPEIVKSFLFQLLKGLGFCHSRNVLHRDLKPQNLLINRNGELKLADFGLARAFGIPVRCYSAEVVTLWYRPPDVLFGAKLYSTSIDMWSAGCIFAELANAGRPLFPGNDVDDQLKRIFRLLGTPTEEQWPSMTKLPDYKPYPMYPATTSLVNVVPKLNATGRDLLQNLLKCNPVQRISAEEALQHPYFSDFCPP

[11] = target: Mitogen-activated protein kinase 8 (Homo sapiens, UniProt P45983);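 also: value comes from one member of a kinome-wide kinase profiling panel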
[12] = target: Serine/threonine-protein kinase pim-1 (Homo sapiens, UniProt P11309)
[13] = target: G protein-coupled receptor kinase 5 (Homo sapiens, UniProt P34947); experiment: Navigating the Kinome. Panel member name: GPRK5
Sequence of G protein-coupled receptor kinase 5 (P34947 whole entry): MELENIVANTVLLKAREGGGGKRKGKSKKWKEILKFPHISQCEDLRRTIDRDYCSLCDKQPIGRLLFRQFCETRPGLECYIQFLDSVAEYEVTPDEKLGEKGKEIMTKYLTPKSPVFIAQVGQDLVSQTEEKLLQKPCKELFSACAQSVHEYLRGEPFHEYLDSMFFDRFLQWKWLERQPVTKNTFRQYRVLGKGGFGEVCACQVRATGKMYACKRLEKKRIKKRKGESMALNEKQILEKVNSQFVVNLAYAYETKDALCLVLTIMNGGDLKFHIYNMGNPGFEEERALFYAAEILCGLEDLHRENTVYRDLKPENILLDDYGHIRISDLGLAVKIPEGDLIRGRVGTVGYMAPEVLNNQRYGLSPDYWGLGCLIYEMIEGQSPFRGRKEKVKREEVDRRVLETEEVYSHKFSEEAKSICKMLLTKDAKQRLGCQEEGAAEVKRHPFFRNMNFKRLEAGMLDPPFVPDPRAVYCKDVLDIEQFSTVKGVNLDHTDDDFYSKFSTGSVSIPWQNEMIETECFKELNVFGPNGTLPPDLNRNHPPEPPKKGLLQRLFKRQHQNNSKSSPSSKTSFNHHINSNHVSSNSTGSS

[14] = target: Glycogen synthase kinase-3 beta (Homo sapiens, UniProt P49841);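 also: value comes from a broad kinome profiling panel, with GSK3B as the panel member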
[15] = target: Cyclin-dependent kinase 8 (Homo sapiens, UniProt P49336); experiment: Navigating the Kinome. Panel member name: CDK8
Sequence of Cyclin-dependent kinase 8 (P49336 whole entry): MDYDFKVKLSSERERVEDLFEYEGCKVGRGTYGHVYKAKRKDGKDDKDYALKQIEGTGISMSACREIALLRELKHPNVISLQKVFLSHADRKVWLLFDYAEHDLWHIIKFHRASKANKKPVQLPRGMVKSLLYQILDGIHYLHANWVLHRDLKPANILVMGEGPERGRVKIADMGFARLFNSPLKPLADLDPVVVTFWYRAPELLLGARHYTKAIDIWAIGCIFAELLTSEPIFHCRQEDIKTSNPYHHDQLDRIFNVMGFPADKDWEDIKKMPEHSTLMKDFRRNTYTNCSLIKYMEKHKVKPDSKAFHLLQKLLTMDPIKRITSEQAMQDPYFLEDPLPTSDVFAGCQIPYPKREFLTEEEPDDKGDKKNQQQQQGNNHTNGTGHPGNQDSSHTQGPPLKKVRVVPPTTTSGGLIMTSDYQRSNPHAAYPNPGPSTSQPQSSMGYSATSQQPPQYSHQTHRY

[16] = target: Tyrosine-protein kinase Lck (Homo sapiens, UniProt P06239);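 also: lck was assayed as one member of a kinase panel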
[17] = target: Serine/threonine-protein kinase TAO1 (Homo sapiens, UniProt Q7L7X3)
[18] = target: Death-associated protein kinase 3 (Homo sapiens, UniProt O43293);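 also: measured as one member of a kinome-wide profiling panel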
[19] = target: Ribosomal protein S6 kinase alpha-3 (Homo sapiens, UniProt P51812);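 also: measured within a kinome-wide profiling panel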
[20] = target: 5'-AMP-activated protein kinase catalytic subunit alpha-1 (Homo sapiens, UniProt Q13131)
[21] = target: Tyrosine-protein kinase ABL1 (Homo sapiens, UniProt P00519)
LIM domain kinase 1 = LIM domain kinase 1 (Homo sapiens, UniProt P53667); experiment: Navigating the Kinome. Panel member name: LIMK1
[22] = target: Serine/threonine-protein kinase Chk1 (Homo sapiens, UniProt O14757);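 also: measured as one member of a kinome-wide kinase profiling panel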
Aurora kinase B = Aurora kinase B (Homo sapiens, UniProt Q96GD4)
Activin receptor type-1 = Activin receptor type-1 (Homo sapiens, UniProt Q04771); experiment: Navigating the Kinome. Panel member name: ACVR1

Sequence of Fibroblast growth factor receptor 1 (P11362 whole entry): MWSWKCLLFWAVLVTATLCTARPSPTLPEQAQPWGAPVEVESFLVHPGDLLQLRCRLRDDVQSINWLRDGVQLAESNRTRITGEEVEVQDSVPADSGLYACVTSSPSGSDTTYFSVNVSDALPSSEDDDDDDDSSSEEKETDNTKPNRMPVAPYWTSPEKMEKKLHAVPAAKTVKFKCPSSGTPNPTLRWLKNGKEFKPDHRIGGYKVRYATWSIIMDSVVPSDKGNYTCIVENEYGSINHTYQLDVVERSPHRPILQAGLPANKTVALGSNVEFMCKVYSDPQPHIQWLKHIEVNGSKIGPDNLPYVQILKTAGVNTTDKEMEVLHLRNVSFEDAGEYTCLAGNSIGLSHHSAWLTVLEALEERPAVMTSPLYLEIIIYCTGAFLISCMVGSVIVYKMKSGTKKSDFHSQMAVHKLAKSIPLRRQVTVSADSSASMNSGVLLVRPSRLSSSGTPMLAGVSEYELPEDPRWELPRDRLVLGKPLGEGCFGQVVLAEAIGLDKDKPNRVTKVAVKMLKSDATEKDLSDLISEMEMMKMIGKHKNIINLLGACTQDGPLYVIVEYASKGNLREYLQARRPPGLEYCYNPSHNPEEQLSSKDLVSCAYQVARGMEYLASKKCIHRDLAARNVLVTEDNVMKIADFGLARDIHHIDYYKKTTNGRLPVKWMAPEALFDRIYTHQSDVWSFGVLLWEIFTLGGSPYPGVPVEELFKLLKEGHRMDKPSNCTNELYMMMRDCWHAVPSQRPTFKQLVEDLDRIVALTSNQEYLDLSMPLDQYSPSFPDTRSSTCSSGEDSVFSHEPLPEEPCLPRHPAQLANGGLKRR

| Ki [1] | Ki [2] | Ki [3] | Ki [4] | Ki (Activated CDC42 kinase 1) | Ki [6] | Ki [7] | Ki (Aurora kinase A) | Ki [8] | Ki [9] | Ki [10] | Ki [11] | Ki [12] | Ki [13] | Ki [14] | Ki [15] | Ki [17] | Ki [20] | Compound | Ki [18] | also measured |
| --- | --- | --- | --- | --- | --- | --- | --- | --- | --- | --- | --- | --- | --- | --- | --- | --- | --- | --- | --- | --- |
| 1 µM (active) | > 3.98 µM (inactive) | > 5.01 µM (inactive) | 0.1 µM (active) | > 3.98 µM (inactive) | > 3.16 µM (inactive) | > 5.01 µM (inactive) | > 1.58 µM (inactive) | > 6.31 µM (inactive) | > 6.31 µM (inactive) | > 3.16 µM (inactive) | > 5.01 µM (inactive) | > 6.31 µM (inactive) | > 3.98 µM (inactive) | 2.51 µM (active) | > 3.98 µM (inactive) | > 6.31 µM (inactive) | > 3.16 µM (inactive) | CCCOc1cccc(C(C)NC(=O)c2ccc(-c3ccncc3F)cc2)c1 (configuration not stated) | > 5.01 µM (inactive) | Ki (Focal adhesion kinase 1): > 6.31 µM (inactive); Ki [5]: > 2.51 µM (inactive); Ki [16]: > 6.31 µM (inactive); Ki [19]: > 3.98 µM (inactive) |
| 0.126 µM (active) | > 3.98 µM (inactive) | > 5.01 µM (inactive) | > 2.51 µM (inactive) | > 3.98 µM (inactive) | > 3.16 µM (inactive) | > 5.01 µM (inactive) | > 1.58 µM (inactive) | > 6.31 µM (inactive) | > 6.31 µM (inactive) | > 3.16 µM (inactive) | > 5.01 µM (inactive) | > 6.31 µM (inactive) | > 3.98 µM (inactive) | 1.58 µM (active) | > 3.98 µM (inactive) | > 6.31 µM (inactive) | > 3.16 µM (inactive) | COc1cccc(C(C)NC(=O)c2cnc(-c3ccncc3)nc2)c1 (configuration not stated) | > 5.01 µM (inactive) | Ki [21]: > 3.98 µM (inactive); Ki (LIM domain kinase 1): > 3.16 µM (inactive); Ki [22]: > 3.16 µM (inactive); Ki (Aurora kinase B): > 3.98 µM (inactive); Ki (Activin receptor type-1): > 3.98 µM (inactive) |
